These are literature values, as cited in patent US8962594B2, “Method of using nutritional compounds dihydroquercetin (taxifolin) and arabinogalactan in combination with dihydroquercetin (taxifolin) to reduce and control cardiometabolic risk factors associated with metabolic syndrome and hypercholesterolemia” (Flavitpure, Inc., priority 2012, dated 2015).

Broadly, the EC50 is the concentration at which the effect is half-maximal.

Data set [1] relates to CNS-derived mouse HT22 cells. The settings on record: read-out: EC50 for protection of HT22 cells from a similar insult.
The test system of data set [2] is apolipoprotein A-I (apoA-I). The settings on record: pulse-chase, HepG2 cells.
In data set [3] the test system is RBCs. The conditions noted are these: remaining hemolysis; vehicle 75.7±5.2%, P<0.001.
The test system of data set [4] is Glutathione prexidase (GPx). The settings on record: 25 and 50 μM.
Another data set has as its system rats. The settings on record: rats treated with high levels for long periods of time.
The next data set has as its system HepG2 cells. The settings on record: 200 umol, within 24 h.
The target of data set [5] is T1, microsomal triglyceride transfer protein (MTP) (Homo sapiens, UniProt P55157).
T1 construct: endogenous in cells; host or cells: HepG2
T1 sequence (P55157 19-894): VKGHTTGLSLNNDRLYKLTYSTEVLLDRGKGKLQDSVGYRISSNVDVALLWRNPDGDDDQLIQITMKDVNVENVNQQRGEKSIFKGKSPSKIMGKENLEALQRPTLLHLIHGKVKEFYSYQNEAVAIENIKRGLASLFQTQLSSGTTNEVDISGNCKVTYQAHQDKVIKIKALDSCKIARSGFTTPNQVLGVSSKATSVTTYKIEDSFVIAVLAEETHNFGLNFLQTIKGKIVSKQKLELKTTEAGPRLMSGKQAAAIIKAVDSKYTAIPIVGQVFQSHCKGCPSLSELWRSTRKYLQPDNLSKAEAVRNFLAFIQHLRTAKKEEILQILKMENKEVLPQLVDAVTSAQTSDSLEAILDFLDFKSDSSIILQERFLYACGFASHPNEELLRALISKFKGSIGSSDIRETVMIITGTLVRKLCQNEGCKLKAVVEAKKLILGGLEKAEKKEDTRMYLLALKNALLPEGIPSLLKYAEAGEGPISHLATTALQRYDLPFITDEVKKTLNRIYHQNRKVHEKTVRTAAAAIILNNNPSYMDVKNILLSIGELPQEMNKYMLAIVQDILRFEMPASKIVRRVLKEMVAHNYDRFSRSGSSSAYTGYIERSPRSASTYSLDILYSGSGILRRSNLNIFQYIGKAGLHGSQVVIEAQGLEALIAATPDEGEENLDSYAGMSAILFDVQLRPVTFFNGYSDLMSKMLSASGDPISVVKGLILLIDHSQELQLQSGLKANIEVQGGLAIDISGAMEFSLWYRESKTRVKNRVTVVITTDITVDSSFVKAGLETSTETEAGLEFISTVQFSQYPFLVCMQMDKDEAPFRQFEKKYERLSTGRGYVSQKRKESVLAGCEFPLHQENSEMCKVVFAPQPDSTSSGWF

Data set [6] concerns diacylglycerol acyltransferase (DGAT). The conditions noted are these: non-competitive.
The test system of the next data set is PPARa. The conditions noted are these: supplementation of HepG2 cells.
For data set [7], the system named is RBCs. The conditions noted are these: pre-incubation of RBCs with water-soluble compound for 30 min; remaining hemolysis.
A further data set concerns RGC-5 cells. The conditions noted are these: read-out: EC50 for protection of RGC-5 cells from oxidative stress induced by GSH depletion.
The target of another data set is T2, HMG-CoA reductase (Homo sapiens, UniProt P04035).
T2 construct: endogenous in cells; host or cells: HepG2
T2 sequence (P04035 1-888): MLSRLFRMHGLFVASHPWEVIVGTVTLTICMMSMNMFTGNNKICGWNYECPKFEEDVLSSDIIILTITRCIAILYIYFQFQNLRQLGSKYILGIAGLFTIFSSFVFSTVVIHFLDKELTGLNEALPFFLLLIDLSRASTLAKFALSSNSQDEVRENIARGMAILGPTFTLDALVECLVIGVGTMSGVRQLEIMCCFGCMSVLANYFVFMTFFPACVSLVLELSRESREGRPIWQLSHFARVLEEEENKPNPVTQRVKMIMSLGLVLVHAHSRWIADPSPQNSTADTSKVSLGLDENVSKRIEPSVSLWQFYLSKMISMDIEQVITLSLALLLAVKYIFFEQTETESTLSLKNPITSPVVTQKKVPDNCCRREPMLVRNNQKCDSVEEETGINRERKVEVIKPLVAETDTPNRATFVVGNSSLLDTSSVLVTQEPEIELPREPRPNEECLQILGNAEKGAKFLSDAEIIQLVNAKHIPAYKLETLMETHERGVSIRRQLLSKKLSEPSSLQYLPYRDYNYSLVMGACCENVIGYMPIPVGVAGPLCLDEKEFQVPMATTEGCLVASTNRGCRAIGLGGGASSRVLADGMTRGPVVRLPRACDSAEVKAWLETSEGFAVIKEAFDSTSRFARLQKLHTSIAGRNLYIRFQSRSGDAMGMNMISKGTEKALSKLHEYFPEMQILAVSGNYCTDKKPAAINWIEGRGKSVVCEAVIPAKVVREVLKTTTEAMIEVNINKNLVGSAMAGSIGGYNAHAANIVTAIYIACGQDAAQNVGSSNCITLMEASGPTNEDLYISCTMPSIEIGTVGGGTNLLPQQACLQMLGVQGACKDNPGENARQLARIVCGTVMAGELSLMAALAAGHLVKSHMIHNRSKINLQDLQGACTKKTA

The subject of another data set is IL-1β. The conditions noted are these: LPS-stimulated PBMC, pre-treated.
The test system of another data set is TNF-α. The settings on record: LPS-stimulated PBMC, pre-treated.

In the case of `O=C1c2c(O)cc(O)cc2OC(c2ccc(O)c(O)c2)C1O` (racemic) [Dihydroquercetin (taxifolin)], the values for the EC50 (in [1]; in the data set on RGC-5 cells) were above 50 µM and 30 µM, respectively. Besides, in data set [2], the “increase of ApoA-I secretion” value was 36+−10%. The “phospholipase C-induced hemolysis” value in the data set with RBCs [3] is on record as 45.4±10.0%. Also, in data set [4], the “Glutathione prexidase (GPx) protein level” value was “significantly increased”. Besides, the toxic effects entry in the data set on rats is “No toxic effects”. Also, the “DGAT-1 mRNA expression” value in the data set on DGAT-1 mRNA is “essentially unchanged”. Also, the “inhibition of cholesterol synthesis” value in the data set with HepG2 cells was 86+−3%. Moreover, the “DGAT-2 mRNA expression” value in the data set on DGAT-2 mRNA is “essentially unchanged”. Besides, the “inhibition of MTP” value in data set [5] is reported as 41%. The “decrease in DGAT activity (change)” value in data set [6] was −35%. Also, the PPARa expression result in the data set on PPARa is given as “increase”. The “peroxyl radical (AAPH)-induced hemolysis reduced to” value in the data set with RBCs [7] is given as 32.5±5.6%. Further, the “reduction of apoB secretion” value in the data set on apolipoprotein B (apoB) (basal and lipid-rich conditions, 200 micromol/L) was “up to 63%”. Besides, the “average reduction in labeled apoB in the medium” value in the data set on apolipoprotein B (apoB) (pulse-chase, HepG2 cells) is listed as 61+−8%. The “inhibition of HMG-CoA reductase activity” value at HMG-CoA reductase is reported as 47+−7%. In addition, in the data set on microsomal TG synthesis, the “TG transfer into the microsomal lumen (change)” value is −26%. Moreover, the “inhibition of microsomal TG synthesis” value with microsomal TG synthesis is reported as 37%.
For the molecule `O=C(O)Cc1ccc(O)c(O)c1` [3,4-DHPAA, 3,4-dihydroxyphenylacetic acid], in the data set with IL-1β, the “inhibition of IL-1β secretion” value is 97.9%. Further, the “mean inhibition of the secretion of TNF-α” value in the data set with TNF-α is recorded as 86.4%.
